Measured values reported in patent US20230242496A1, “SOX11 INHIBITORS FOR TREATING MANTLE CELL LYMPHOMA” (Icahn School of Medicine At Mount Sinai, priority 2020, published 2023).

Experiments:
Jeko-1 (SOX11+) = test: Cell viability assay (CellTiter-Blue resazurin reduction); type: cell-based; details: JeKo-1 cells; for IC50: 0-40 μM; for viability at 20 µM: 20 μM compound, normalized to 0.2% DMSO
How it was run: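 Cells were exposed to compound for 72 h, then resazurin reduction (CellTiter-Blue, 2 h) was read by fluorescence and converted to viable cell number via a standard curve. Viability was normalised to 0.2% DMSO-treated cells. IC50 came from a sigmoidal dose-response fit, three separate experiments.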

(His)6-SOX11-DBD protein = target: T1, (His)6-SOX11-DBD protein (Homo sapiens, UniProt P35716); test: Surface Plasmon Resonance (SPR) assay; type: binding; details: immobilized recombinant (His)6-SOX11-DBD, 25° C., compounds 5-40 μM, mean of three experiments
T1 construct: Recombinant (His)6-SOX11-DBD protein was immobilized
T1 sequence (P35716 49-117 limits assumed): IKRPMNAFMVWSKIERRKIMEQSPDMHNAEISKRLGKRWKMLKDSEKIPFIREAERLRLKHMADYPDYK

Row | SMILES | Kd ((His)6-SOX11-DBD protein) [µM] | IC50 (Jeko-1 (SOX11+); Homo sapiens, JeKo-1, 72 h) [µM] | viability at 20 µM (Jeko-1 (SOX11+); Homo sapiens, JeKo-1, 72 h) [%] | IC50 (Jeko-1 (SOX11+); 72 hours) [µM] | viability at 20 µM (Jeko-1 (SOX11+); Homo sapiens, 72 hours) [%] | IC50 (Jeko-1 (SOX11+); Homo sapiens, 72 hours) [µM]
1 | CC(C)C1Sc2ccc(C(=O)Nc3ccc(S(=O)(=O)Nc4ccccc4)cc3)cc2NC1=O (centres unmarked) | 1.18 | 2.5 | 1.01 | – | – | –
2 | CC1Sc2ccc(C(=O)Nc3ccc(CNc4cccc(S(=O)(=O)F)c4)cc3)cc2NC1=O (centres unmarked) | 1.65 | – | – | 16 | – | –
3 | CC1Sc2ccc(C(=O)Nc3ccc(S(=O)(=O)N4CCCC4)c(Cl)c3)cc2N(C)C1=O (centres unmarked) | 20.4 | – | 8.44 | – | – | –
4 | CC1Oc2ccc(C(=O)Nc3ccc(S(=O)(=O)Nc4ccccc4)cc3)cc2NC1=O (centres unmarked) | 15.3 | 12 | 9.09 | – | – | –
5 | CC1Sc2ccc(C(=O)Nc3cccc(CNc4ccc(OS(=O)(=O)F)cc4)c3)cc2NC1=O (centres unmarked) | 3.53 | – | – | – | 4.81 | 10
6 | CC1Sc2ccc(C(=O)Nc3cccc(S(=O)(=O)Nc4ccccc4F)c3)cc2NC1=O (centres unmarked) | 28.7 | 13 | 22.7 | – | – | –
7 | c1ccc(COc2ccc(CNc3ccc4cncnc4c3)cc2)cc1 | 5.2 | – | 1.09 | – | – | –
8 | Cc1ccc(NC(=O)c2ccc3c(c2)N(C)C(=O)CS3)cc1S(=O)(=O)N1CCCC1 | 35.9 | – | 90.9 | – | – | –
9 | Cc1nc2cc(C(=O)Nc3ccc(S(=O)(=O)Nc4ccccc4)cc3)ccc2s1 | 21.2 | 12 | 16.6 | – | – | –
10 | CC1Sc2ccc(C(=O)Nc3cccc(S(=O)(=O)NC4CCN(C(=O)OC(C)(C)C)CC4)c3)cc2NC1=O (centres unmarked) | 142 | 15 | 13 | – | – | –
11 | CC1Sc2ccc(C(=O)Nc3cccc(S(=O)(=O)N(C)C(C)C)c3)cc2NC1=O (centres unmarked) | 65.9 | 6 | 9.64 | – | – | –
12 | Cc1ccccc1NS(=O)(=O)c1cccc(NC(=O)c2ccc3c(c2)NC(=O)C(C)S3)c1 (centres unmarked) | 7.42 | 6 | 6.11 | – | – | –
13 | CC1Sc2ccc(C(=O)Nc3cccc(S(=O)(=O)Nc4ccncc4)c3)cc2NC1=O (centres unmarked) | 21.2 | > 20 | 95.8 | – | – | –
14 | O=C(Nc1ccc(S(=O)(=O)Nc2ccccc2)cc1)c1ccc2oc(=O)[nH]c2c1 | 8.68 | 20 | 51.8 | – | – | –

Continued, in another order:

Row | Kd ((His)6-SOX11-DBD protein) [µM] | SMILES | IC50 (Jeko-1 (SOX11+); Homo sapiens, JeKo-1, 72 h) [µM] | viability at 20 µM (Jeko-1 (SOX11+); Homo sapiens, JeKo-1, 72 h) [%] | IC50 (Jeko-1 (SOX11+); 72 hours) [µM] | viability at 20 µM (Jeko-1 (SOX11+); Homo sapiens, 72 hours) [%] | IC50 (Jeko-1 (SOX11+); Homo sapiens, 72 hours) [µM]
15 | 90.9 | CC(C)NS(=O)(=O)c1cccc(NC(=O)c2ccc3c(c2)NC(=O)C(C)S3)c1 (centres unmarked) | 8 | 17.6 | – | – | –
16 | 130 | CC1Sc2ccc(C(=O)Nc3ccc(S(=O)(=O)Nc4ccccn4)cc3)cc2NC1=O (centres unmarked) | > 20 | 96.4 | – | – | –
17 | 19 | CC1Sc2ccc(C(=O)Nc3ccc(S(=O)(=O)NC4CCCCC4)cc3)cc2NC1=O (centres unmarked) | 8 | 30.4 | – | – | –
18 | 1.1 | CC1Sc2ccc(C(=O)Nc3ccc(S(=O)(=O)Nc4ccccc4C(F)(F)F)cc3)cc2NC1=O (centres unmarked) | 10 | 8.61 | – | – | –
19 | 15.4 | CC1Sc2ccc(C(=O)Nc3ccc(S(=O)(=O)N(C)C)cc3)cc2NC1=O (centres unmarked) | 15 | 19.6 | – | – | –
20 | 96.9 | CC1Sc2ccc(C(=O)Nc3cccc(S(=O)(=O)NC4CC4)c3)cc2NC1=O (centres unmarked) | 4 | 11.9 | – | – | –
21 | 13.4 | CC1Sc2ccc(C(=O)Nc3ccc(Cl)c(S(=O)(=O)N(C)C(C)C)c3)cc2NC1=O (centres unmarked) | – | 12 | – | – | –
22 | 15.9 | CC1Sc2ccc(C(=O)Nc3ccc(S(=O)(=O)Nc4ccc(F)cc4)cc3)cc2NC1=O (centres unmarked) | > 20 | 80.1 | – | – | –
23 | 3.43 | CC1Sc2ccc(C(=O)Nc3ccc(CN4CCCCC4)cc3)cc2NC1=O (centres unmarked) | – | 108 | – | – | –
24 | 3.63 | CC1Sc2ccc(C(=O)Nc3ccc(S(=O)(=O)N4CCCCC4)cc3)cc2NC1=O (centres unmarked) | 8 | 7.38 | – | – | –
25 | 4.24 | CC1Sc2ccc(C(=O)Nc3cccc(S(=O)(=O)Nc4ccc(Cl)cc4)c3)cc2NC1=O (centres unmarked) | 11.5 | 10.4 | – | – | –
26 | 8.16 | Cc1cccc(NCc2ccc(NC(=O)c3ccc4c(c3)NC(=O)C(C)S4)cc2)c1 (centres unmarked) | – | 79 | – | – | –
